Like-named read-outs stand apart in the source and are kept apart here.
What was measured:
[1] = rat, in vivo; for maximum non-sedating dose: iv
[2] = test system: streptozotocin-induced diabetic neuropathy model of neuropathic pain; details: rat, in vivo; for maximum non-sedating dose / reduction in hyperalgesia: iv
[3] = in vivo; cited from earlier work
[4] = test system: rat model of diabetic neuropathic pain; set-up: species or system rats; details: in vivo
[5] = dog, in vivo, iv
[6] = test system: carrageenan paw inflammation model; details: rat, in vivo
[7] = test system: rat model of prostate bone cancer pain; assay: animal or person; type: in vivo, Male Wistar rats; details: rat, in vivo

Row | Molecule | maximum non-sedating dose [1] [mg/kg] | maximum non-sedating dose [2] [mg/kg] | mean rest times [1] [s] | toxicity on intravenous administration [3] | antinociceptive effect [4] | adverse effects on cardiovascular function [5] | toxicological or pathological effect [5] | analgesic response compared to saline administration [6] | duration of antinociceptive responses following injection of the bolus ([6]; ip) [h] | efficacy compared with gabapentin or morphine alone or in combination [2] | reduction in hyperalgesia ([2]; 0.02 mg/kg) | reduction in hyperalgesia ([2]; 2 mg/kg) | reversal of the hyperalgesia caused by intratibial prostate bone cancer (FIG. 7) [7] | antinociceptive effects ([7]; iv)
1 | CSCC[C@@H]1NC(=O)[C@H](CC(C)C)NC(=O)[C@H](CCCNC(=N)N)NC(=O)[C@H](CO)NC(=O)[C@@H]2CSSC[C@@H]3NC(=O)[C@H](CO)NC(=O)CNC(=O)[C@H]([C@@H](C)O)NC(=O)[C@H](CSSC[C@H](N)C(=O)N[C@@H](CCCCN)C(=O)NCC(=O)N[C@@H](CCCCN)C(=O)NCC(=O)N[C@@H](C)C(=O)N[C@@H](CCCCN)C(=O)N2)NC(=O)[C@H](CSSC[C@@H](C(N)=O)NC(=O)[C@H](CCCCN)NC(=O)CNC(=O)[C@H](CO)NC(=O)[C@H](CCCNC(=N)N)NC3=O)NC(=O)[C@H](CC(=O)O)NC(=O)[C@H](Cc2ccc(O)cc2)NC1=O [MVIIA, ziconotide] | 0.02 | 0.02 |  |  |  |  |  |  |  |  |  |  |  | 
2 | leconotide [CVID] | 2 | 2.0 | 982.89 | less toxic than ziconotide | dose related antinociceptive effects | no adverse effects on cardiovascular function | no toxicological or pathological effect was observed | effective at inducing an analgesic response | 4 to 6 | improved efficacy | approximately 30% | greater than 50% | small, statistically non-significant reversal | no significant antinociceptive effects

Reference: patent US20110129508A1 (priority 2008, published 2011)
